We go through seven molecules from ChEMBL document CHEMBL5212743, “Selectivity Literature for EUbOPEN Chemogenomics Library wave 3” (2023).

In assay [1] the target is Atypical kinase COQ8B, mitochondrial (Homo sapiens) (UniProt Q96D53). In words: Selectivity interaction (KinomeScan (DiscoverX)) EUB0000740a ADCK4. The conditions noted are these: at 1 µM.
The target of another assay is Aurora kinase B (Homo sapiens, UniProt Q96GD4). In words: Selectivity interaction (KinomeScan (DiscoverX)) EUB0000740a AURKB. The conditions noted are these: at 1 µM.
Assay [2] has as its target Ephrin type-A receptor 5 (Homo sapiens) (UniProt P54756). In words: Selectivity interaction (KinomeScan (DiscoverX)) EUB0000740a EPHA5. The conditions noted are these: at 1 µM.
Assay [3] has as its target T1, Serine/threonine-protein kinase LATS2 (Homo sapiens) (UniProt Q9NRM7).
T1 sequence (whole entry): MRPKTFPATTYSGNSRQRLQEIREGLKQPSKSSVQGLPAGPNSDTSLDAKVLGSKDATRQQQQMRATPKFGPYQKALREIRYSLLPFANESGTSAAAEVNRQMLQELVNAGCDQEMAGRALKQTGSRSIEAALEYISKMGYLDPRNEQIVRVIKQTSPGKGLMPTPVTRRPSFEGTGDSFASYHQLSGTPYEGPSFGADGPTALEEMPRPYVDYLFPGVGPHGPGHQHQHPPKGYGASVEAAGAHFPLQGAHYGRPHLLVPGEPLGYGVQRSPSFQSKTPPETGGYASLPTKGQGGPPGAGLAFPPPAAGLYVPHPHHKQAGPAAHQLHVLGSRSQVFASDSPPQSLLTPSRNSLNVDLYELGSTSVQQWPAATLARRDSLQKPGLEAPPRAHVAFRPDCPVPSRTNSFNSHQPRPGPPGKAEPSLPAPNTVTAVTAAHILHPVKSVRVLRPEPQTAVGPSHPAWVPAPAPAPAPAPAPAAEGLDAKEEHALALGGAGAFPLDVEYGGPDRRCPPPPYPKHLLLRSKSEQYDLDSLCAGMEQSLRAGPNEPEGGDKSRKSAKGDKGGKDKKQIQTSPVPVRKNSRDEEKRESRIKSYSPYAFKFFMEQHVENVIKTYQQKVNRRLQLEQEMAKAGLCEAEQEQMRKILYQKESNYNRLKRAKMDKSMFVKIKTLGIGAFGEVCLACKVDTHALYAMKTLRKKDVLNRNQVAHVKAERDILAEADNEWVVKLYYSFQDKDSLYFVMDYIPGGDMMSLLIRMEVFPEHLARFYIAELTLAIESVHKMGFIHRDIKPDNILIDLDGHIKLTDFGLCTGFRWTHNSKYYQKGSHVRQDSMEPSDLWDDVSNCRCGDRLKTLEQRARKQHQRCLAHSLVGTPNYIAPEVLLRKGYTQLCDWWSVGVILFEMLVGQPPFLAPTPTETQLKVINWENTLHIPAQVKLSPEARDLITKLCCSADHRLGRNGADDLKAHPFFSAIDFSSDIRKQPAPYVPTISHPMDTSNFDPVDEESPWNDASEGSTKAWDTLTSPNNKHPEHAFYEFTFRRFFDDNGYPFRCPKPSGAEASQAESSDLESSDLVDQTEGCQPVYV
In words: Selectivity interaction (KinomeScan (DiscoverX)) EUB0000740a LATS2. The conditions noted are these: at 1 µM.

Assay [4] addresses Beta-1 adrenergic receptor (Homo sapiens) (UniProt P08588). The assay can be described thus: Selectivity interaction (Eurofins-Panlabs panel (at Boehringer Ingelheim)) EUB0000314b ADRB1. The conditions noted are these: at 10 µM.
Assay [5] concerns the target T2, D(1B) dopamine receptor (Homo sapiens, UniProt P21918). In words: Selectivity interaction (GPCR panel (PDSP screen)) EUB0000314b DRD5. The conditions noted are these: at 10 µM.
The target in assay [6] is Gamma-aminobutyric acid receptor subunit beta-2 (Homo sapiens) (UniProt P47870). The assay can be described thus: Selectivity interaction (Eurofins-Panlabs panel (at Boehringer Ingelheim)) EUB0000314b GABRB2. The conditions noted are these: at 10 µM.
Assay [7] deals with T1, Serine/threonine-protein kinase LATS2 (Homo sapiens). The assay can be described thus: Selectivity interaction (KinomeScan (DiscoverX)) EUB0000314b LATS2. The conditions noted are these: at 1 µM.
Assay [8] concerns the target 5-hydroxytryptamine receptor 1B (Homo sapiens) (UniProt P28222). In words: Selectivity interaction (GPCR panel (PDSP screen)) EUB0000343a HTR1B. The conditions noted are these: at 10 µM.
The target in assay [9] is Serine/threonine-protein kinase Nek1 (Homo sapiens) (UniProt Q96PY6). In words: Selectivity interaction (KinomeScan (DiscoverX)) EUB0000343a NEK1. The conditions noted are these: at 1 µM.
Assay [10] concerns the target T3, Phosphatidylinositol 5-phosphate 4-kinase type-2 gamma (Homo sapiens) (UniProt Q8TBX8).
T3 sequence (whole entry): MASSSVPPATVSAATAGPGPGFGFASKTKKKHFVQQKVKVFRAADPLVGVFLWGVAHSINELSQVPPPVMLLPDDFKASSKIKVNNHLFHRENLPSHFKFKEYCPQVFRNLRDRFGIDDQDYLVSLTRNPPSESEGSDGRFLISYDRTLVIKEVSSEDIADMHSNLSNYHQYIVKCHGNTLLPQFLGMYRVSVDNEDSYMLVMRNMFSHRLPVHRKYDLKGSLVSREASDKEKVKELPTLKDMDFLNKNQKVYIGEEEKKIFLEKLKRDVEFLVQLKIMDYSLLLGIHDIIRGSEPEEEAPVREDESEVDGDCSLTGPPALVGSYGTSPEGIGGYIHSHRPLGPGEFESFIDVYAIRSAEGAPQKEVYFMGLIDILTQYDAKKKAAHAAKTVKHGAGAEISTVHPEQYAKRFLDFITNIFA
The assay can be described thus: Selectivity interaction (KinomeScan (DiscoverX)) EUB0000343a PIP4K2C. The conditions noted are these: at 1 µM.

Assay [11] deals with Sodium-dependent dopamine transporter (Homo sapiens, UniProt Q01959). The assay can be described thus: Selectivity interaction (Eurofins-Panlabs screen (receptors)) EUB0000352a SLC6A3. The conditions noted are these: at 10 µM.
Assay [12] deals with Leucine-rich repeat serine/threonine-protein kinase 2 (Homo sapiens, UniProt Q5S007). In words: Selectivity interaction (KinomeScan (DiscoverX)) EUB0000352a LRRK2. The conditions noted are these: at 1 µM.
For assay [13], the target named is T4, Serine/threonine-protein kinase 38-like (Homo sapiens, UniProt Q9Y2H1). In words: Selectivity interaction (KinomeScan (DiscoverX)) EUB0000352a STK38L. The conditions noted are these: at 1 µM.
The target of assay [14] is T5, Tyrosine-protein kinase ABL1 (Homo sapiens, UniProt P00519). The conditions noted are these: at 20 µM.
Assay [15] has as its target T5, Tyrosine-protein kinase ABL1. The conditions noted are these: at 20 µM. This is another data set of the same source.
The target in assay [16] is Tyrosine-protein kinase JAK1 (Homo sapiens, UniProt P23458). The conditions noted are these: at 1 µM.
Assay [17] deals with Ribosomal protein S6 kinase alpha-6 (Homo sapiens) (UniProt Q9UK32). In words: Selectivity interaction (KinomeScan (DiscoverX)) EUB0000586a RPS6KA6. The conditions noted are these: at 1 µM.
Assay [18] has as its target T2, D(1B) dopamine receptor. In words: Selectivity interaction (GPCR panel (PDSP screen)) EUB0000586a DRD5. The conditions noted are these: at 10 µM.
Assay [19] addresses Kappa-type opioid receptor (Homo sapiens, UniProt P41145). In words: Selectivity interaction (GPCR panel (PDSP screen)) EUB0000586a OPRK1. The conditions noted are these: at 10 µM.
For assay [20], the target named is Death-associated protein kinase 1 (Homo sapiens) (UniProt P53355). In words: Selectivity interaction (KinomeScan (DiscoverX)) EUB0000586a DAPK1. The conditions noted are these: at 1 µM.
In assay [21] the target is Serine/threonine-protein kinase tousled-like 1 (Homo sapiens) (UniProt Q9UKI8). The assay can be described thus: Selectivity interaction (KinomeScan (DiscoverX)) EUB0000586a TLK1. The conditions noted are these: at 1 µM.
For assay [22], the target named is Serine/threonine-protein kinase 24 (Homo sapiens) (UniProt Q9Y6E0). The assay can be described thus: Selectivity interaction (KinomeScan (DiscoverX)) EUB0000586a STK24. The conditions noted are these: at 1 µM.
In assay [23] the target is 5-hydroxytryptamine receptor 3A (Homo sapiens) (UniProt P46098). The assay can be described thus: Selectivity interaction (GPCR panel (PDSP screen)) EUB0000586a HTR3A. The conditions noted are these: at 10 µM.
Assay [24] concerns the target T4, Serine/threonine-protein kinase 38-like. The assay can be described thus: Selectivity interaction (KinomeScan (DiscoverX)) EUB0000586a STK38L. The conditions noted are these: at 1 µM.
For assay [25], the target named is Ribosomal protein S6 kinase alpha-1 (Homo sapiens) (UniProt Q15418). The assay can be described thus: Selectivity interaction (KinomeScan (DiscoverX)) EUB0000586a RPS6KA1. The conditions noted are these: at 1 µM.
The target of assay [26] is Ribosomal protein S6 kinase alpha-2 (Homo sapiens) (UniProt Q15349). The assay can be described thus: Selectivity interaction (KinomeScan (DiscoverX)) EUB0000586a RPS6KA2. The conditions noted are these: at 1 µM.
Assay [27] concerns the target Transient receptor potential cation channel subfamily M member 6 (Homo sapiens) (UniProt Q9BX84). In words: Selectivity interaction (KinomeScan (DiscoverX)) EUB0000549a TRPM6. The conditions noted are these: at 1 µM.
Assay [28] concerns the target Serine/threonine-protein kinase Nek4 (Homo sapiens) (UniProt P51957). In words: Selectivity interaction (KinomeScan (DiscoverX)) EUB0000549a NEK4. The conditions noted are these: at 1 µM.
The target of assay [29] is T6, Cytoplasmic tyrosine-protein kinase BMX (Homo sapiens) (UniProt P51813).
T6 sequence (whole entry): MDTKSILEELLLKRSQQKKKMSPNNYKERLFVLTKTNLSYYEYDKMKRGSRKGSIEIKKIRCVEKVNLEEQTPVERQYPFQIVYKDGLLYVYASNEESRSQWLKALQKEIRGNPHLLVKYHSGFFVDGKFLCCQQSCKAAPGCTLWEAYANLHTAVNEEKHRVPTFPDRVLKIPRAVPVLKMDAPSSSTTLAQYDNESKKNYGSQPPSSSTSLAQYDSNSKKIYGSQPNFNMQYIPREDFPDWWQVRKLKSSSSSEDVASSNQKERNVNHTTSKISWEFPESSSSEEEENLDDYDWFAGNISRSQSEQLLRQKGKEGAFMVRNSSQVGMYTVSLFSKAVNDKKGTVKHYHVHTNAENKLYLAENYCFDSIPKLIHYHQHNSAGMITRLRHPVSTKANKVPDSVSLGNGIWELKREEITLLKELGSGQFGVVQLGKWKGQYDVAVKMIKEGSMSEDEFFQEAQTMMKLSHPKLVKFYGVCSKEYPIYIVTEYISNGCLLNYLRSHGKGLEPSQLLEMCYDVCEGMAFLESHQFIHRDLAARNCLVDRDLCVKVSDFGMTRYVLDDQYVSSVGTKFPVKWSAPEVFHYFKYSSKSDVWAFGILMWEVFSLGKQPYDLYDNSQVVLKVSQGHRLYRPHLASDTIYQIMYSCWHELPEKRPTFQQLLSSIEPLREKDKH
The assay can be described thus: Selectivity interaction (KinomeScan (DiscoverX)) EUB0000549a BMX. The conditions noted are these: at 1 µM.

In assay [30] the target is T4, Serine/threonine-protein kinase 38-like. In words: Selectivity interaction (KinomeScan (DiscoverX)) EUB0000549a STK38L. The conditions noted are these: at 1 µM.

T4 sequence (Q9Y2H1 2-464 limits assumed): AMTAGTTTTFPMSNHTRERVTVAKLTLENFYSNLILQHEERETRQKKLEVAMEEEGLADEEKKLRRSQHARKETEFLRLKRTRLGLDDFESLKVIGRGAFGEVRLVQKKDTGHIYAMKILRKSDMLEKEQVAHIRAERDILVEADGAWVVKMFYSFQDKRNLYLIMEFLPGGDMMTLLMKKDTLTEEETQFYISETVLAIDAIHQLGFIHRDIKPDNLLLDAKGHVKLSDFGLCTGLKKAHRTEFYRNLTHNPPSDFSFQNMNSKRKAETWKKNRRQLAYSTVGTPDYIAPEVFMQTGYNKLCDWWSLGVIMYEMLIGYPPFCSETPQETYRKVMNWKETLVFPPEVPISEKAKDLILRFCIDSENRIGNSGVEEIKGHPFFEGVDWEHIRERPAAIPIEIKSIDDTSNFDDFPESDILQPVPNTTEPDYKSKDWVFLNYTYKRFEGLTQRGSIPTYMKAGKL
T2 sequence (P21918 whole entry): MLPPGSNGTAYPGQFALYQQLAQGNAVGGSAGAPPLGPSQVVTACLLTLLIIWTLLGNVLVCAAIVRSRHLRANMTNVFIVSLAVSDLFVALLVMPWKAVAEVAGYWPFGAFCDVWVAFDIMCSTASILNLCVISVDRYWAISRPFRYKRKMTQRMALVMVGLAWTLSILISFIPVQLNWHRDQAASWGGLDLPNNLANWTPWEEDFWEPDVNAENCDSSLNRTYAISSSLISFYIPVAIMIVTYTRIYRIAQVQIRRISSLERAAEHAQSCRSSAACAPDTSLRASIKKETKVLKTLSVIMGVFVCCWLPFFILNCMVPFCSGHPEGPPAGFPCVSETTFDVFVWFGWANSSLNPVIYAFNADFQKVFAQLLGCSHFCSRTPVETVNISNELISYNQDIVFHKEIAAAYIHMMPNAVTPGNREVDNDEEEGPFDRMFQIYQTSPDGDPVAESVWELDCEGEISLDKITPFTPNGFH
T5 sequence (P00519 whole entry): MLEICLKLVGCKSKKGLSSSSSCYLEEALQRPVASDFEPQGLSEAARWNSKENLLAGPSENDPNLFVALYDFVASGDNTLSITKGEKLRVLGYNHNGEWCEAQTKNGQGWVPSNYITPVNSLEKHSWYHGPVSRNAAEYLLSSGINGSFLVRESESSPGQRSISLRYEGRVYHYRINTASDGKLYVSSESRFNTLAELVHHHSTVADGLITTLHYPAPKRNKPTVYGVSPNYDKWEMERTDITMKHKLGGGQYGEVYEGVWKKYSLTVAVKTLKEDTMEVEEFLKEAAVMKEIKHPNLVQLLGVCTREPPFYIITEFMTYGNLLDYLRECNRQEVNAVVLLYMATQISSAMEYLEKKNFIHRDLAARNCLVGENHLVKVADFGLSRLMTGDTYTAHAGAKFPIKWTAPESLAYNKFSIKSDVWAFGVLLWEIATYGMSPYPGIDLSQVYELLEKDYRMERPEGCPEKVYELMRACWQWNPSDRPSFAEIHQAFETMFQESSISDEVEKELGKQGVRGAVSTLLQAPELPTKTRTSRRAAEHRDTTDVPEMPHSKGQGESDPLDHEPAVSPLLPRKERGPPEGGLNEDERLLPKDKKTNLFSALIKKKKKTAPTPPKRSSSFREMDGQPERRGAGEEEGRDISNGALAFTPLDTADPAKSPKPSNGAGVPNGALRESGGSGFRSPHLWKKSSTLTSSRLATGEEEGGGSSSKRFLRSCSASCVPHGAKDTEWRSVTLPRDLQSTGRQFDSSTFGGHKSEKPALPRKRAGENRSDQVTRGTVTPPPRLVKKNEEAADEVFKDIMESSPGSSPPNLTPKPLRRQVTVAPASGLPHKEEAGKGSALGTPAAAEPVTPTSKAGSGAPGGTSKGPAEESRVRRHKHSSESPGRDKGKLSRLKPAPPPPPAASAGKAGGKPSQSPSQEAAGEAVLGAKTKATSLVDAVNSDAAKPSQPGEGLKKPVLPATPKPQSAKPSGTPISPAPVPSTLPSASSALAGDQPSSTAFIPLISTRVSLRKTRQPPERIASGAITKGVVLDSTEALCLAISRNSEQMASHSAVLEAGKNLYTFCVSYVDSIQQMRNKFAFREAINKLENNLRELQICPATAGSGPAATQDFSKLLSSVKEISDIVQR
Sequence of Aurora kinase B (Q96GD4 whole entry): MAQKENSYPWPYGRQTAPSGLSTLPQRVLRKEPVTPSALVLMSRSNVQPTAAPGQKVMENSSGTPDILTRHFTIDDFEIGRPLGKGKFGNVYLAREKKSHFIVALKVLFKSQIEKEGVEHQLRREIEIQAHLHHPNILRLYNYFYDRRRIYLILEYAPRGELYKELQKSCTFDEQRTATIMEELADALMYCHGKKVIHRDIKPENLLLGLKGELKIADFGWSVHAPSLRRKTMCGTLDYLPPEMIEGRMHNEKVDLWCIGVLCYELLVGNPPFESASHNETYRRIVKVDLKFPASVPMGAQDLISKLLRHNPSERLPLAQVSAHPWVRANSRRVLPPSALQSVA
Sequence of Serine/threonine-protein kinase Nek1 (Homo sapiens) (Q96PY6 whole entry): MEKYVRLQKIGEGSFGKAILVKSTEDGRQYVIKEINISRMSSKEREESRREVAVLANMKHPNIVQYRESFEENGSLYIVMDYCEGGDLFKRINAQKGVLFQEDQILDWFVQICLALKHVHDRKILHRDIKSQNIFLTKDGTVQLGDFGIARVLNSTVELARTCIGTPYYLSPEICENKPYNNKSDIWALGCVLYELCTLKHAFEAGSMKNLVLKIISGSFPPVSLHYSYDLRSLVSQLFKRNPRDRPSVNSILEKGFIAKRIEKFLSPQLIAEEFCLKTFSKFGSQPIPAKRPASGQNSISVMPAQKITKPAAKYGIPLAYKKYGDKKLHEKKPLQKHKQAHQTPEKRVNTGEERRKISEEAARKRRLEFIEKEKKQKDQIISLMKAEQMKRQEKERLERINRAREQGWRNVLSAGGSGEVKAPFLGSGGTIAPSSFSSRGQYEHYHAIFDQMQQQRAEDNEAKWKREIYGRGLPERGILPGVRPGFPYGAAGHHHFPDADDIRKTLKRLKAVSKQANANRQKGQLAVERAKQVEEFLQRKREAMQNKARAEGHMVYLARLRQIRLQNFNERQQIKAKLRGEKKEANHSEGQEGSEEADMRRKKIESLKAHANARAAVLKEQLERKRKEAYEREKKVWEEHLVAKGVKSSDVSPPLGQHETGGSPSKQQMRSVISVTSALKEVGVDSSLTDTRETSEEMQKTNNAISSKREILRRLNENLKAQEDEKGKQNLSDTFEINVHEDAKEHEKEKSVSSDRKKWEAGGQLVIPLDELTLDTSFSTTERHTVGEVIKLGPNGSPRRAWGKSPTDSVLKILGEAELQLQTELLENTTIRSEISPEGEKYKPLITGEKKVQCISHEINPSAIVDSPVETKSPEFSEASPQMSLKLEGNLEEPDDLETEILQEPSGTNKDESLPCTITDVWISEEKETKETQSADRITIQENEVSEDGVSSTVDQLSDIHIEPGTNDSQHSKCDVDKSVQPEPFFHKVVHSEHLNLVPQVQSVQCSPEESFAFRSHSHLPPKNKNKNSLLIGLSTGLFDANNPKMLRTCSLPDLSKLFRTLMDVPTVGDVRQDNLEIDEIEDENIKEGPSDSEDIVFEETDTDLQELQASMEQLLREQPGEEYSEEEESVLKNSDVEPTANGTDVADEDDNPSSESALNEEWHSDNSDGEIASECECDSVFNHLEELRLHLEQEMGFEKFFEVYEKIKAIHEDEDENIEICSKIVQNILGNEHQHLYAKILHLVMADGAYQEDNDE
Sequence of Ribosomal protein S6 kinase alpha-1 (Homo sapiens) (Q15418 whole entry, looked up): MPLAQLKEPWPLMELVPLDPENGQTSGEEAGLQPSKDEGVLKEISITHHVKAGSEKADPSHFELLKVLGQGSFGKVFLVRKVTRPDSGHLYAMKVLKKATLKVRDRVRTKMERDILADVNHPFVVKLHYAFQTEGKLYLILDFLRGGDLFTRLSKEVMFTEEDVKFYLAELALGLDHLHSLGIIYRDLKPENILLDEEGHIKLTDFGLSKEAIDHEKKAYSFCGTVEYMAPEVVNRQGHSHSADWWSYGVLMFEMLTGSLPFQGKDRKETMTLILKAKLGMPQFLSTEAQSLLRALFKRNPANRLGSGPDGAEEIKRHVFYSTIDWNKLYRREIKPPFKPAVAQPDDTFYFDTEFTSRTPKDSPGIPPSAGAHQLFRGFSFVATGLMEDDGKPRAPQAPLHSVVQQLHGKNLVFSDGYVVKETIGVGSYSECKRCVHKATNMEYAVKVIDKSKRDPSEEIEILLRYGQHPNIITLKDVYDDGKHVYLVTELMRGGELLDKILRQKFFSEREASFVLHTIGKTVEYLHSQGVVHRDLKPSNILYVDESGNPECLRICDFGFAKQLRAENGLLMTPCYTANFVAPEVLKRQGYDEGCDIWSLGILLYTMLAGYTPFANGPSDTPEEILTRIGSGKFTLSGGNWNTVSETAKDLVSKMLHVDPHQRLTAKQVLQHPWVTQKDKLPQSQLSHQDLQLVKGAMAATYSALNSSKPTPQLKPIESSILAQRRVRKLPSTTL
Sequence of Serine/threonine-protein kinase 24 (Homo sapiens) (Q9Y6E0 whole entry, looked up): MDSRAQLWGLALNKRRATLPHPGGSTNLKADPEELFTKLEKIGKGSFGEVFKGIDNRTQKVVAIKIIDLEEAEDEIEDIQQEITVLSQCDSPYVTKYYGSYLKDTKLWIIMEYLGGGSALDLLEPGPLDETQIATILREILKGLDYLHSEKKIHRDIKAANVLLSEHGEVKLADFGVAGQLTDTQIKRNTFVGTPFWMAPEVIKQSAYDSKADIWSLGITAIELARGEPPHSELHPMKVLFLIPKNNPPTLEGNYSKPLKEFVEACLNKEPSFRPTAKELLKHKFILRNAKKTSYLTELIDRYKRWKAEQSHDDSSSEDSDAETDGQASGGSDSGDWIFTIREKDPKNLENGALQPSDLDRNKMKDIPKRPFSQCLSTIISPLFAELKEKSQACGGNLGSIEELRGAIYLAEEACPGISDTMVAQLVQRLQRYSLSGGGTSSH

In the case of `CN(C)C(=O)Cn1cc(-c2nc(C3(c4ccc(-c5cnc(N)nc5)cc4)CC3)no2)cn1`, the % of control in assay [1] worked out at 44%; at Aurora kinase B, 41%; in [2], 41%; in assay [3], 46%.

As for `CCS(=O)(=O)c1cc2cc(C[C@](O)(CC(C)(C)c3ccc(F)cc3C(N)=O)C(F)(F)F)[nH]c2cn1`, the figures for the % of control in [4], in assay [6] and in assay [7] were 75%, 75% and 40%, respectively. Also, at D(1B) dopamine receptor [5], the % of inhibition was determined as 34%.

`CS(=O)(=O)NCC[C@H](NC(=O)c1cncc2c1cnn2-c1ccc(F)cc1)c1ccnc(S(C)(=O)=O)c1` showed a % of inhibition in assay [8] of 47.7%. Further, the % of control in assay [9] was found to be 45%; in assay [10] it was 0%.

Consider `CS(=O)(=O)c1cc(C2(NC(=O)c3cncc4c3cnn4-c3ccc(F)cc3)CC2)ccn1`, for which, in [11], the % of inhibition was 71%. Also, the % of control is 43% in [12] and 34% in assay [13].

Consider `CN(C)C(=O)Cn1cc(-c2nc([C@@](C)(c3ccc(-c4cnc(N)nc4)cc3)C3CC3)no2)cn1`, for which the % of inhibition in assay [14] is 67%. Moreover, the % of control in assay [15] and in assay [16] was 33% throughout.

In the case of `CCS(=O)(=O)c1cc2cc(C[C@@](O)(CC(C)(C)c3ccc(F)cc3C(N)=O)C(F)(F)F)[nH]c2cn1`, the % of control in assay [17] turned out to be 0%; in [20] it was 0%; in assay [21], 0%; in assay [22], 0%; in assay [24], 38%; in assay [25], 0%. In assay [26], this molecule returned a % of control of 0%. The % of inhibition at D(1B) dopamine receptor [18] worked out at 32%; in assay [19], 28%; in [23], 21%.

Take `C[C@@]1(Cc2ccc(C#N)cc2)C(=O)N(c2cc(Cl)cc(Cl)c2)c2ncc(C(=O)NC3(c4nc(C5CCC5)no4)CC3)n21`: the % of control turned out to be 0% in [27], 12% in assay [28], 40% in assay [29] and 48% in assay [30].
